# Source: patent US11840584B2, “Simple and green method for preparation of acid modified cyclodextrin” (priority 2020, dated 2023)
# Test: Curcumin retention in curcumin-cyclodextrin inclusion complex solution left standing 10 days
# Format: physicochemical
# Details: 10 days at room temperature without shielding from light
row,curcumin remained in the solution [%],SMILES
1,36.83,OC[C@H]1O[C@@H]2O[C@H]3[C@H](O)[C@@H](O)[C@@H](O[C@H]4[C@H](O)[C@@H](O)[C@@H](O[C@H]5[C@H](O)[C@@H](O)[C@@H](O[C@H]6[C@H](O)[C@@H](O)[C@@H](O[C@H]7[C@H](O)[C@@H](O)[C@@H](O[C@H]1[C@H](O)[C@H]2O)O[C@@H]7CO)O[C@@H]6CO)O[C@@H]5CO)O[C@@H]4CO)O[C@@H]3CO [α-cyclodextrin]
2,21.94,OC[C@H]1O[C@@H]2O[C@H]3[C@H](O)[C@@H](O)[C@@H](O[C@H]4[C@H](O)[C@@H](O)[C@@H](O[C@H]5[C@H](O)[C@@H](O)[C@@H](O[C@H]6[C@H](O)[C@@H](O)[C@@H](O[C@H]7[C@H](O)[C@@H](O)[C@@H](O[C@H]8[C@H](O)[C@@H](O)[C@@H](O[C@H]9[C@H](O)[C@@H](O)[C@@H](O[C@H]1[C@H](O)[C@H]2O)O[C@@H]9CO)O[C@@H]8CO)O[C@@H]7CO)O[C@@H]6CO)O[C@@H]5CO)O[C@@H]4CO)O[C@@H]3CO [γ-cyclodextrin]
3,32.30,OC[C@H]1O[C@@H]2O[C@H]3[C@H](O)[C@@H](O)[C@@H](O[C@H]4[C@H](O)[C@@H](O)[C@@H](O[C@H]5[C@H](O)[C@@H](O)[C@@H](O[C@H]6[C@H](O)[C@@H](O)[C@@H](O[C@H]7[C@H](O)[C@@H](O)[C@@H](O[C@H]8[C@H](O)[C@@H](O)[C@@H](O[C@H]1[C@H](O)[C@H]2O)O[C@@H]8CO)O[C@@H]7CO)O[C@@H]6CO)O[C@@H]5CO)O[C@@H]4CO)O[C@@H]3CO [β-cyclodextrin]
